Measured values taken from US10214542B2, “Modified macrocyclic compounds” (BAYER PHARMA AKTIENGESELLSCHAFT, priority 2015, dated 2019).

Experiments:
DU145 cells = experiment: Proliferation assay, crystal violet (Method 3); assay type: cell-based; conditions: Homo sapiens, DU-145, 96 h; DU145, 4 days; read-out: Inhibition of DU145 cell proliferation IC50
Experimental: (§1) Cultivated tumour cells (HeLa, human cervical tumour cells, ATCC CCL-2; NCI-H460, human non-small cell lung carcinoma cells, ATCC HTB-177; DU 145, hormone-independent human prostate carcinoma cells, ATCC HTB-81; HeLa-MaTu-ADR, multidrug-resistant human cervical carcinoma cells, EPO-GmbH Berlin; Caco-2, human colorectal carcinoma cells, ATCC HTB-37; B16F10, mouse melanoma cells, ATCC CRL-6475) were plated at a density of 5,000 cells/well (DU145, HeLa-MaTu-ADR), 3,000 cells/well (NCI-H460, HeLa), 1,500 cells/well (Caco-2), or 1,000 cells/well (B16F10) in a 96-well multititer plate in 200 μL of their respective growth medium supplemented 10% fetal calf serum. After 24 hours, the cells of one plate (zero-point plate) were stained with crystal violet (see below), while the medium of the other plates was supplemented with the test substances in various concentrations (0 μM, as well as in the range of 0.0001-10 μM; the final concentration of the solvent dimethyl sulfoxide was adjusted to 0.1%) using a Hewlett-Packard HP D300 Digital Dispenser. The cells were incubated for 4 days in the presence of test substances. Cell proliferation was determined by staining the cells with crystal violet: the cells were fixed by adding 20 μl/measuring point of an 11% glutaric aldehyde solution for 15 minutes at room temperature. After three washing cycles of the fixed cells with water, the plates were dried at room temperature. The cells were stained by adding 100 μl/measuring point of a 0.1% crystal violet solution (pH 3.0). After three washing cycles of the stained cells with water, the plates were dried at room temperature. The dye was dissolved by adding 100 μl/measuring point of a 10% acetic acid solution. The extinction was determined by photometry at a wavelength of 595 nm. The change of cell number, in percent, was calculated by normalization of the measured values to the extinction values of the zero-point plate (=0%) and the extinction of the untreated (0 μm) cells (=100%). The IC50 values (inhibitory concentration at 50% of maximal effect) were determined by means of a 4 parameter fit.

B16F10 cells = experiment: Proliferation assay, crystal violet (Method 3); assay type: cell-based; conditions: Mus musculus, B16-F10, 96 h; B16F10, 4 days; read-out: Inhibition of B16F10 cell proliferation IC50
Experimental: as §1

Caco-2 cells = experiment: Proliferation assay, crystal violet (Method 3); assay type: cell-based; conditions: Homo sapiens, 96 h; Caco-2, 4 days; read-out: Inhibition of Caco-2 cell proliferation IC50
Experimental: as §1

NCI-H460 cells = experiment: Proliferation assay, crystal violet (Method 3); assay type: cell-based; conditions: Homo sapiens, 96 h; NCI-H460, 4 days; read-out: Inhibition of NCI-H460 cell proliferation IC50
Experimental: as §1

HeLa-MaTu-ADR cells = experiment: Proliferation assay, crystal violet (Method 3); assay type: cell-based; conditions: Homo sapiens, 96 h, 4 days, read-out: Inhibition of HeLa-MaTu-ADR cell proliferation IC50
Experimental: as §1

CDK9/CycT1 = target: T1, CDK9/CycT1 (Homo sapiens, UniProt P50750); experiment: CDK9/CycT1 high ATP kinase assay (TR-FRET, Method 1b); assay type: biochemical; conditions: 2 mM ATP; for IC50: Method 1b; for Selectivity high ATP CDK9 over high ATP CDK2: IC50 (high ATP CDK2)/IC50 (high ATP CDK9): Methods 1b and 2b
T1 construct: Recombinant full-length His-tagged human CDK9 and CycT1; His; purchased Invitrogen PV4131; host or cells: insect cells
T1 sequence (P50750 whole entry): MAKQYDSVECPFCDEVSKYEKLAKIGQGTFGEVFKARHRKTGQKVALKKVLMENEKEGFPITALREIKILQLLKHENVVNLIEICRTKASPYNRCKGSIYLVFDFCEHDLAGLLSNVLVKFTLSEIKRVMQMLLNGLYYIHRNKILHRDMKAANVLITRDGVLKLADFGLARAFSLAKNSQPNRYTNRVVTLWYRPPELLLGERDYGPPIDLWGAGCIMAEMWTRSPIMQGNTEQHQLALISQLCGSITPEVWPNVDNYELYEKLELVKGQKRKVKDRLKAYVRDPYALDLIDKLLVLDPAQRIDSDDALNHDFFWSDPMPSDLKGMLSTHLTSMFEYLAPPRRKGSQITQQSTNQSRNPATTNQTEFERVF
T1 sequence (O60563 whole entry partner): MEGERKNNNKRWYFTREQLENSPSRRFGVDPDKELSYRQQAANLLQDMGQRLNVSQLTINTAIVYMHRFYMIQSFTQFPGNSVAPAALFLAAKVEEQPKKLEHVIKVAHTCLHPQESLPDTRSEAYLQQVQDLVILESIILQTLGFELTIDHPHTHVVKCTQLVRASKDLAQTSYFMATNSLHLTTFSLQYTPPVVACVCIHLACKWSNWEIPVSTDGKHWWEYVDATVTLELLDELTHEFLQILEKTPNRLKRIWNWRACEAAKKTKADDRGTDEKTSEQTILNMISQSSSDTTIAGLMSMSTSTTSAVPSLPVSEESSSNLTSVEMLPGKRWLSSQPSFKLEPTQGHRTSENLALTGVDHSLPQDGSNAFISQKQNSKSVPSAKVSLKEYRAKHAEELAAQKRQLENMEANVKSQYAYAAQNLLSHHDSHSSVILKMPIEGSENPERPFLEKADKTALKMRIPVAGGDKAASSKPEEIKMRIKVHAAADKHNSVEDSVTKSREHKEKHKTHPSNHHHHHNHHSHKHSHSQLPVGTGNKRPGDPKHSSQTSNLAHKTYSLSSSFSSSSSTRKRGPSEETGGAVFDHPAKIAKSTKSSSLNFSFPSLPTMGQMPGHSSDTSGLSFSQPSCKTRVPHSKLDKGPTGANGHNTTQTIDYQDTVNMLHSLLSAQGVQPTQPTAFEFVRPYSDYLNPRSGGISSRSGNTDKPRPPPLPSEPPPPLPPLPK
Experimental: 1b. CDK9/CycT1 High ATP Kinase Assay
CDK9/CycT1-inhibitory activity of compounds of the present invention at a high ATP concentration after preincubation of enzyme and test compounds was quantified employing the CDK9/CycT1 TR-FRET assay as described in the following paragraphs.
Recombinant full-length His-tagged human CDK9 and CycT1, expressed in insect cells and purified by Ni-NTA affinity chromatography, were purchase from Invitrogen (Cat. No PV4131). As substrate for the kinase reaction biotinylated peptide biotin-Ttds-YISPLKSPYKISEG (C-terminus in amid form) was used which can be purchased e.g. from the company JERINI peptide technologies (Berlin, Germany).
For the assay 50 nl of a 100 fold concentrated solution of the test compound in DMSO was pipetted into a black low volume 384 well microtiter plate (Greiner Bio-One, Frickenhausen, Germany), 2 μl of a solution of CDK9/CycT1 in aqueous assay buffer [50 mM Tris/HCl pH 8.0, 10 mM MgCl2, 1.0 mM dithiothreitol, 0.1 mM sodium ortho-vanadate, 0.01% (v/v) Nonidet-P40 (Sigma)] were added and the mixture was incubated for 15 min at 22° C. to allow pre-binding of the test compounds to the enzyme before the start of the kinase reaction. […] The concentration of CDK9/CycT1 was adjusted depending of the activity of the enzyme lot and was chosen appropriate to have the assay in the linear range, typical concentrations were in the range of 0.5 μg/mL. The reaction was stopped by the addition of 5 μl of a solution of TR-FRET detection reagents (0.2 μM streptavidine-XL665 [Cisbio Bioassays, Codolet, France] and 1 nM anti-RB(pSer807/pSer811)-antibody from BD Pharmingen [#558389] and 1.2 nM LANCE EU-W1024 labeled anti-mouse IgG antibody [Perkin-Elmer, product no. AD0077]) in an aqueous EDTA-solution (100 mM EDTA, 0.2% (w/v) bovine serum albumin in 100 mM HEPES pH 7.5).
The resulting mixture was incubated 1 h at 22° C. to allow the formation of complex between the phosphorylated biotinylated peptide and the detection reagents. Subsequently the amount of phosphorylated substrate was evaluated by measurement of the resonance energy transfer from the Eu-chelate to the streptavidine-XL. Therefore, the fluorescence emissions at 620 nm and 665 nm after excitation at 350 nm was measured in a HTRF reader, e.g. a Rubystar (BMG Labtechnologies, Offenburg, Germany) or a Viewlux (Perkin-Elmer). The ratio of the emissions at 665 nm and at […] was taken as the measure for the amount of phosphorylated substrate. The data were normalised (enzyme reaction without inhibitor=0% inhibition, all other assay components but no enzym=100% inhibition).

Row | Compound | IC50 (DU145 cells) | IC50 (B16F10 cells) | IC50 (Caco-2 cells) | IC50 (NCI-H460 cells) | IC50 (HeLa-MaTu-ADR cells) | IC50 (CDK9/CycT1) | Selectivity high ATP CDK9 over high ATP CDK2: IC50 (high ATP CDK2)/IC50 (high ATP CDK9) (CDK9/CycT1)
1 | CN1CCCCOc2cc(F)ccc2-c2cc(ncc2F)Nc2cc(CS(C)(=N)=O)cc1n2 (racemic) [Example 11, (rac)-16,20-difluoro-6-methyl-9-[(S-methylsulfonimidoyl)methyl]-3,4,5,6-tetrahydro-2H-7,11-(azeno)-17,13-(metheno)-1,6,12,14-benzoxatriazacyclononadecine] | 12 nM | 12 nM | 8.9 nM | 12 nM | 12 nM | 2.6 nM | 31
2 | CN1CCCCNc2cc(F)ccc2-c2nc(ncc2F)Nc2cc(CS(C)(=N)=O)cc1c2.O=CO (racemic) [Example 17, (rac)-16,20-difluoro-6-methyl-9-[(S-methylsulfonimidoyl)methyl]-1,2,3,4,5,6-hexahydro-12H-17,13-(azeno)-11,7-(metheno)-1,6,12,14-benzotetraazacyclononadecine; salt with formic acid] | 30 nM | 38 nM | 24 nM | 35 nM | 30 nM | 2.2 nM | 283
3 | C[S+]([O-])Cc1cc2nc(c1)OCCCCCc1cc(F)ccc1-c1cc(ncc1F)N2 (racemic) [Example 19, (rac)-2,19-difluoro-9-[(methylsulfinyl)methyl]-14,15,16,17-tetrahydro-6H,13H-7,11-(azeno)-5,1-(metheno)-12,4,6-benzoxadiazacyclononadecine] | 942 nM | 1550 nM | 944 nM | 1150 nM | 888 nM | 17 nM | 82.9
4 | CC(C)(C)OC(=O)N=S(C)(=O)Cc1cc2cc(c1)OCCCCSc1cc(F)ccc1-c1nc(ncc1F)N2 (racemic) [Example 21, (rac)-tert-butyl[{[16,20-difluoro-2,3,4,5-tetrahydro-12H-17,13-(azeno)-11,7-(metheno)-6,1,12,14-benzoxathiadiazacyclononadecin-9-yl]methyl}(methyl)oxido-λ^6-sulfanylidene]carbamate] | 327 nM | 543 nM | 243 nM | 476 nM | 334 nM | 13 nM | 915
5 | CSCc1cc2nc(c1)OCCCCc1cc(F)ccc1-c1cc(ncc1F)N2 [Example 4, 2,18-Difluoro-9-[(methylsulfanyl)methyl]-13,14,15,16-tetrahydro-6H-7,11-(azeno)-5,1-(metheno)-12,4,6-benzoxadiazacyclooctadecine] | > 10000 nM | > 10000 nM | 2550 nM | 4770 nM | 5570 nM | 323 nM | >61.9
6 | CSCc1cc2nc(c1F)N(C)CCCCOc1cc(F)ccc1-c1cc(ncc1F)N2 [Example 12, 8,16,20-trifluoro-6-methyl-9-[(methylsulfanyl)methyl]-3,4,5,6-tetrahydro-2H,12H-11,7-(azeno)-13,17-(metheno)-1,6,12,14-benzoxatriazacyclononadecine] | 852 nM | 991 nM | 441 nM | 588 nM | 872 nM | 10 nM | –

Continued, values first:

Row | IC50 (DU145 cells) | IC50 (B16F10 cells) | IC50 (Caco-2 cells) | IC50 (NCI-H460 cells) | IC50 (HeLa-MaTu-ADR cells) | IC50 (CDK9/CycT1) | Selectivity high ATP CDK9 over high ATP CDK2: IC50 (high ATP CDK2)/IC50 (high ATP CDK9) (CDK9/CycT1) | Compound
7 | 40 nM | 83 nM | 48 nM | 64 nM | 63 nM | 4.7 nM | 713 | CC(C)(C)OC(=O)N=S(C)(=O)Cc1cc2cc(c1)OCCCCNc1cc(F)ccc1-c1nc(ncc1F)N2 (racemic) [Example 15, (rac)-tert-butyl[{[16,20-difluoro-2,3,4,5-tetrahydro-1H,12H-13,17-(azeno)-11,7-(metheno)-6,1,12,14-benzoxatriazacyclononadecin-9-yl]methyl}(methyl)oxido-λ^6-sulfanylidene]carbamate]
8 | 12 nM | 18 nM | 12 nM | 20 nM | 13 nM | 1.5 nM | 151 | CS(=N)(=O)Cc1cc2cc(c1)OCCCCNc1cc(F)ccc1-c1nc(ncc1F)N2 (racemic) [Example 16, (rac)-16,20-difluoro-9-[(S-methylsulfonimidoyl)methyl]-2,3,4,5-tetrahydro-1H-17,13-(azeno)-7,11-(metheno)-6,1,12,14-benzoxatriazacyclononadecine]
9 | 347 nM | 867 nM | 350 nM | 579 nM | 360 nM | 5.2 nM | 177 | CS(=N)(=O)Cc1cc2nc(c1)OCCCCCc1cc(F)ccc1-c1cc(ncc1F)N2 (racemic) [Example 20, (rac)-2,19-difluoro-9-[(S-methylsulfonimidoyl)methyl]-14,15,16,17-tetrahydro-6H,13H-7,11-(azeno)-5,1-(metheno)-12,4,6-benzoxadiazacyclononadecine]
10 | 36 nM | 110 nM | 74 nM | 115 nM | 105 nM | 4.5 nM | 244 | CS(=N)(=O)Cc1cc2cc(c1)OCCCCSc1cc(F)ccc1-c1nc(ncc1F)N2 (racemic) [Example 22, (rac)-16,20-difluoro-9-[(S-methylsulfonimidoyl)methyl]-2,3,4,5-tetrahydro-12H-17,13-(azeno)-11,7-(metheno)-6,1,12,14-benzoxathiadiazacyclononadecine]
11 | 30 nM | 51 nM | 36 nM | 31 nM | 28 nM | 3.8 nM | 140 | CSCc1cc2nc(c1)Nc1cc(c(F)cn1)-c1ccc(F)cc1OCCCN2 [Example 1, 15,19-Difluoro-8-[(methylsulfanyl)methyl]-2,3,4,5-tetrahydro-11H-10,6-(azeno)-12,16-(metheno)-1,5,11,13-benzoxatriazacyclooctadecine]
